This note sets out measurements from ChEMBL document CHEMBL1136188, “1H-Pyrazolo-[3,4-c]cyclophepta[1,2-c]thiophenes: a unique structural class of dopamine D4 selective ligands” (Bioorg Med Chem Lett, 2003).

One data set concerns the target D(1A) dopamine receptor (Homo sapiens, UniProt P21728). The data set can be described thus: Binding affinity towards Dopamine receptor D1 was determined.
Data set [1] addresses T1, D(4) dopamine receptor (Homo sapiens, UniProt P21917).
T1 sequence (P21917 whole entry): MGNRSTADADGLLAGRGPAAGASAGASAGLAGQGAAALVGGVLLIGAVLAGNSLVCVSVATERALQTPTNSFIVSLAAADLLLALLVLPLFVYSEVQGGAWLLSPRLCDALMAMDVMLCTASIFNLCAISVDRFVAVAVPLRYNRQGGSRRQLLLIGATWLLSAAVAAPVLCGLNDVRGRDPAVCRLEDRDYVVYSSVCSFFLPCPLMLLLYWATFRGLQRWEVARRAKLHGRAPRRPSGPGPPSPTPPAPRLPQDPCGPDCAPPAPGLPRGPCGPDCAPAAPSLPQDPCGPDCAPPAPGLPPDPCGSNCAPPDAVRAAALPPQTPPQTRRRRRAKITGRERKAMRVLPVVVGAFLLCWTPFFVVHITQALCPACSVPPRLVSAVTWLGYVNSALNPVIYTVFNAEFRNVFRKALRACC
The data set can be described thus: Binding affinity to recombinant human dopamine receptor D4.

Another data set concerns the target D(2) dopamine receptor (Homo sapiens, UniProt P14416). The data set can be described thus: Binding affinity towards cloned human Dopamine receptor D2 was determined.
The next data set addresses D(1B) dopamine receptor (Homo sapiens, UniProt P21918). Briefly: Binding affinity towards cloned human Dopamine receptor D5 was determined.
The nature of data set [2]: Half life in human microsomes. It counts as ADME, Microsome.
Data set [3] deals with T2, 5-hydroxytryptamine receptor 1A (Homo sapiens, UniProt P08908).
T2 sequence (P08908 whole entry): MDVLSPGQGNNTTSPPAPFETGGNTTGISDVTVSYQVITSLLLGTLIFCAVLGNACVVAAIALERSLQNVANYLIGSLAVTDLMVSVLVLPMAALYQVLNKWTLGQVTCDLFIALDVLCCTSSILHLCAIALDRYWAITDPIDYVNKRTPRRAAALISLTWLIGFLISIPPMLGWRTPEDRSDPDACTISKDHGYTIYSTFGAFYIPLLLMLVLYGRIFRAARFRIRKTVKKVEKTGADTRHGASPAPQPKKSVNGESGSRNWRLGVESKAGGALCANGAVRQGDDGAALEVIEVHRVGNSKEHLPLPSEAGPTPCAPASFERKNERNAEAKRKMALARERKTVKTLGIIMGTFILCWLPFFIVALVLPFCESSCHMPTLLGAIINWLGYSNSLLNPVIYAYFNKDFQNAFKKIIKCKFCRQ
The data set can be described thus: Binding affinity towards cloned human 5-hydroxytryptamine 1A receptor was determined.

Data set [4] has as its target Serotonin 2 (5-HT2) receptor (Homo sapiens, UniProt P41595+P28223+P28335). The data set can be described thus: Binding affinity towards cloned human 5-hydroxytryptamine 2 receptor was determined. The format is protein assay.
Data set [5] addresses T1, D(4) dopamine receptor. Briefly: Antagonistic activity against human Dopamine receptor D4.2 using [35S]GTP-gamma-S binding assay. On the technique in general: GTPγS resists hydrolysis and so accumulates on activated G proteins.
For another data set, the target named is D(3) dopamine receptor (Homo sapiens, UniProt P35462). The data set can be described thus: Binding affinity towards cloned human Dopamine receptor D3 was determined.
Chain of D(3) dopamine receptor (P35462 whole entry): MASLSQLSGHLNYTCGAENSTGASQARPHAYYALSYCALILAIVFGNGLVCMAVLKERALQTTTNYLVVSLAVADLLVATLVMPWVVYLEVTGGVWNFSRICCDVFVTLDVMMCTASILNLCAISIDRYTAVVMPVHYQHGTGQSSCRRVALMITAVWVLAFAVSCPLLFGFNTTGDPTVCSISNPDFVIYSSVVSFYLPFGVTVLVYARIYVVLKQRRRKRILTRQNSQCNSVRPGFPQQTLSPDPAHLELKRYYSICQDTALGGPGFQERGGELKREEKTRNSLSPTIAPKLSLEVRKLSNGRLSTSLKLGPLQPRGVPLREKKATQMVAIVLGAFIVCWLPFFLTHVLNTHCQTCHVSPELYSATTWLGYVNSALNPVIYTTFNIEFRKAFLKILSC
Data set [6] has as its target T3, Adrenergic receptor alpha-1 (Homo sapiens, UniProt P35348+P25100+P35368).
T3 sequence (P35348 whole entry): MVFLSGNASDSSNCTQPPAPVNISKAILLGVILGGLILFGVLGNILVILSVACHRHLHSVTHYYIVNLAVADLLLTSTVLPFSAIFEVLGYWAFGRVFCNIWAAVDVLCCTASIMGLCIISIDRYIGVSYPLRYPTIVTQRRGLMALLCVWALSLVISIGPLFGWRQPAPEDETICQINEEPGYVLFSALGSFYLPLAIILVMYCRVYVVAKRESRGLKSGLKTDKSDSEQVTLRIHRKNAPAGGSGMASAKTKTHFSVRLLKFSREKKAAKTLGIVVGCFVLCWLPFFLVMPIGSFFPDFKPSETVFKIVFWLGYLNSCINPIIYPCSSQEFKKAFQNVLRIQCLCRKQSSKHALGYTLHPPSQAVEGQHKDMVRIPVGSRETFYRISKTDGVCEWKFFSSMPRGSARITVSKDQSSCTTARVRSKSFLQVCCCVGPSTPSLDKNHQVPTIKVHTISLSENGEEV
T3 sequence (P25100 whole entry): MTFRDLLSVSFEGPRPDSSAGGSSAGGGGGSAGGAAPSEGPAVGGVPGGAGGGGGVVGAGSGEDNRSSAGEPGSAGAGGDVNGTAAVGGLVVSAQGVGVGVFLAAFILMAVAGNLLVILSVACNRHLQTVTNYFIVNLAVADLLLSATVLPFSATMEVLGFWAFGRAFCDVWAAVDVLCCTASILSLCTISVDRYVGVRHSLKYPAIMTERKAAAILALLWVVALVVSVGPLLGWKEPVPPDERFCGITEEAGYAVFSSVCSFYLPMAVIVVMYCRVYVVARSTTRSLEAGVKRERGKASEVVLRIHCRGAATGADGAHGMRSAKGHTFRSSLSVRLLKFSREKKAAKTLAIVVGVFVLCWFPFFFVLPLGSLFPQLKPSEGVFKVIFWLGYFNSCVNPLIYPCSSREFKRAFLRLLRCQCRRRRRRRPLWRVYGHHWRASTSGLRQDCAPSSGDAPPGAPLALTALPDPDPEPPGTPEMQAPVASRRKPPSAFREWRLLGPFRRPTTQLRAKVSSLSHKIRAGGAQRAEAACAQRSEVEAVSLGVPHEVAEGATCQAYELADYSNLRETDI
T3 sequence (P35368 whole entry): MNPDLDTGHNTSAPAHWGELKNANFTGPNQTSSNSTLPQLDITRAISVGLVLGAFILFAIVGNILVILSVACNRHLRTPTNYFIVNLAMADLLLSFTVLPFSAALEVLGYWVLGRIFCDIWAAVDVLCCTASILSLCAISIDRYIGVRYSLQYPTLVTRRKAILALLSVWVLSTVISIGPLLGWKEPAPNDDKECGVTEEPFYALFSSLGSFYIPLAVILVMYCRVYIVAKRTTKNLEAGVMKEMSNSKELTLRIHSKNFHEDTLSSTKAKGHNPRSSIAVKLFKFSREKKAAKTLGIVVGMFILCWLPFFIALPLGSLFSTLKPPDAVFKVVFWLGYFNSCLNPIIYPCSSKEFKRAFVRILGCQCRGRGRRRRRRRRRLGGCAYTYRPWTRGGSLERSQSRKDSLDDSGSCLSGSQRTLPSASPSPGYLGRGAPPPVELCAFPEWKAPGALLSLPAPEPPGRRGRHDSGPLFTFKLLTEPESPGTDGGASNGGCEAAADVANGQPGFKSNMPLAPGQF
Briefly: Binding affinity towards cloned human Alpha-1 adrenergic receptor was determined. It counts as protein assay.

Data set [7] in a line: mLogP was determined. It counts as physicochemical. To be noted: octanol/water; read-out: mLog P.

Chain of D(1B) dopamine receptor (P21918 whole entry): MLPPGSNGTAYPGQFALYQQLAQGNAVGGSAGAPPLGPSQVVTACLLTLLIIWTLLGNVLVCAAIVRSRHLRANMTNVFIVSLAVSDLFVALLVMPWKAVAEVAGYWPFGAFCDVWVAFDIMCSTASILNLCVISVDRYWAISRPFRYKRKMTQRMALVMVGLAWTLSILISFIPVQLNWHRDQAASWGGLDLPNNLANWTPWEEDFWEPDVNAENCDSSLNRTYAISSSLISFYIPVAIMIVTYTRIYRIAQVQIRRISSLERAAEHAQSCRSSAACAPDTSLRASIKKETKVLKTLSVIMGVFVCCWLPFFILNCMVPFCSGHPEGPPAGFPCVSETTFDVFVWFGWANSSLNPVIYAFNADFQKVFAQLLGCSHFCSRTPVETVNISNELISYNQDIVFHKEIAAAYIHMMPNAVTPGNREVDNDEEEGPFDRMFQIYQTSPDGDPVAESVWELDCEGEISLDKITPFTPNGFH
Chain of D(1A) dopamine receptor (P21728 whole entry): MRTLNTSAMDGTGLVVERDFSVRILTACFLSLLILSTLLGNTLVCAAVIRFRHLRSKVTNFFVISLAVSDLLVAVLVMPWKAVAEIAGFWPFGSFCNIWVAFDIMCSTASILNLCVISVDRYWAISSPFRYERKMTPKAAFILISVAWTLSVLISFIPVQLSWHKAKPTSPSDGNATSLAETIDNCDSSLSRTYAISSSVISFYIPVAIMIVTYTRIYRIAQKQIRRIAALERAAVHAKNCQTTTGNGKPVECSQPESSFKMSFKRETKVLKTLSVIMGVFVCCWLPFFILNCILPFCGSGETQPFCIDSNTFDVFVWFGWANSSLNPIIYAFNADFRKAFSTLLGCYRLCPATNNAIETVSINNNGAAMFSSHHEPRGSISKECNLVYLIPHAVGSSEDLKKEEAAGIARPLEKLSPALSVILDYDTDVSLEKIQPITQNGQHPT
Chain of D(2) dopamine receptor (P14416 whole entry): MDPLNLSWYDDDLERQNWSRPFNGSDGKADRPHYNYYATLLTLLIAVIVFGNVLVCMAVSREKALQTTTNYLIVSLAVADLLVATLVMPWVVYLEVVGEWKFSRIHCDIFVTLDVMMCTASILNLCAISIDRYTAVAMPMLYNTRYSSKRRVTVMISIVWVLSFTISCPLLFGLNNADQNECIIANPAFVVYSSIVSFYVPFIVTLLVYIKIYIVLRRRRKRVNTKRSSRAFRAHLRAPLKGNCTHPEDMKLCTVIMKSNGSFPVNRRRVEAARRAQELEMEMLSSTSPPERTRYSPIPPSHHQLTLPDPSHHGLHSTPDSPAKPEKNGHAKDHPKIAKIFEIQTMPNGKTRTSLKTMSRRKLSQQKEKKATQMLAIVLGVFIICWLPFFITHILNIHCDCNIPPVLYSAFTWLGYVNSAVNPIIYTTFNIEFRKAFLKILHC

For the compound `Cc1sc(C)c2c1CCCc1c[nH]nc1-2`, the Ki on D(1A) dopamine receptor is above 10000 nM; on D(4) dopamine receptor [1], 12 nM; at D(2) dopamine receptor, 2070 nM; on D(1B) dopamine receptor, above 10000 nM; in data set [3], above 1000 nM; in data set [4], 2087 nM. Besides, the Ki (at D(3) dopamine receptor; in [6]) was above 10000 nM throughout. In data set [2], the half-life was 6 min. This compound also had an EC50 on D(4) dopamine receptor [5] of 9 nM. In addition, the logP in [7] was determined as 2.48.

Usually Ki stands for a dissociation constant, usually derived from enzyme kinetics or from competition with a known ligand. A word on the half-life: it is how long it takes for the measured level to halve. A word on the EC50: it is the concentration giving half of the maximal effect.
